Measured values reported in US11046680B1, “Heteroaryl-substituted triazoles as APJ receptor agonists” (priority 2016, dated 2021).

Target: human APJ receptor (Homo sapiens (Human), UniProt P35414)
Test: biochemical
Type: biochemical
Conditions: [35S]GTPγS binding, CHO membranes expressing human APJ receptor; read-out: Activity hAPJ SPA EC50 IP
Procedure, shortened: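 GTPγS binding on membranes from CHO cells stably expressing FLAG-tagged human APJ, with optimized GDP, MgCl2 and NaCl; incubated 90 min at RT before imaging read-out.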

Chain of human APJ receptor (P35414 whole entry): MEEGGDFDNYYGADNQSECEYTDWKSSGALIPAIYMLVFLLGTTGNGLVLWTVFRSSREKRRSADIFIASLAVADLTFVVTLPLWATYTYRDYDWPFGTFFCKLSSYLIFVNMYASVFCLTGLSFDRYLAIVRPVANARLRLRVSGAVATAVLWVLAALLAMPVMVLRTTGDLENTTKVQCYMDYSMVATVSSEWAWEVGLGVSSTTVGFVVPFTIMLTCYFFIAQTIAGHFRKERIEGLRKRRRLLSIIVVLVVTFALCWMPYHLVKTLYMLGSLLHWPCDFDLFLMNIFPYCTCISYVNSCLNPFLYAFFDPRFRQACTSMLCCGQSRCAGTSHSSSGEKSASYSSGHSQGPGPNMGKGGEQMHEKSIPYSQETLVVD

Compound | EC50 [nM]
COc1cccc(OC)c1-n1c(NS(=O)(=O)[C@@H]2C[C@@H](O)CN(c3ncc(F)cn3)C2)nnc1-c1nc(C)cs1 (single isomer, unassigned) [Example 257.0, (3R,5R)-N-(4-(2,6-dimethoxyphenyl)-5-(4-methyl-1,3-thiazol-2-yl)-4H-1,2,4-triazol-3-yl)-1-(5-fluoro-2-pyrimidinyl)-5-hydroxy-3-piperidinesulfonamide or (3S,5S)-N-(4-(2,6-dimethoxyphenyl)-5-(4-methyl-1,3-thiazol-2-yl)-4H-1,2,4-triazol-3-yl)-1-(5-fluoro-2-pyrimidinyl)-5-hydroxy-3-piperidinesulfonamide] | 3.9
COc1ncnc(OC)c1-n1c(NS(=O)(=O)[C@@H](C)[C@H](C)c2ncc(C)cn2)nnc1-c1noc2ccccc12 [Example 88.0, (2S,3R)-N-(5-(benzo[d]isoxazol-3-yl)-4-(4,6-dimethoxypyrimidin-5-yl)-4H-1,2,4-triazol-3-yl)-3-(5-methylpyrimidin-2-yl)butane-2-sulfonamide] | 50
COc1cccc(OC)c1-n1c(NS(=O)(=O)[C@@H](C)[C@H](OC)c2ncc(Cl)cn2)nnc1-c1cnn(C)c1C(C)C [Example 501.0, (1R,2S)-1-(5-chloropyrimidin-2-yl)-N-(4-(2,6-dimethoxyphenyl)-5-(5-isopropyl-1-methyl-1H-pyrazol-4-yl)-4H-1,2,4-triazol-3-yl)-1-methoxypropane-2-sulfonamide] | 9.3
COc1cccc(OC)c1-n1c(NS(=O)(=O)[C@@H](C)[C@H](OC)c2ncc(C)cn2)nnc1-c1nc(C2CC2)cs1 [Example 340.0, (1R,2S)-N-(5-(4-cyclopropyl-1,3-thiazol-2-yl)-4-(2,6-dimethoxyphenyl)-4H-1,2,4-triazol-3-yl)-1-methoxy-1-(5-methyl-2-pyrimidinyl)-2-propanesulfonamide] | 0.26
COc1cnc([C@@H](C)[C@H](C)S(=O)(=O)Nc2nnc(-c3cnn4c3CCC4)n2-c2c(OC)cccc2OC)cn1 [Example 486.0, (2S,3R)-N-(5-(5,6-dihydro-4H-pyrrolo[1,2-b]pyrazo1-3-yl)-4-(2,6-dimethoxyphenyl)-4H-1,2,4-triazol-3-yl)-3-(5-methoxypyrazin-2-yl)butane-2-sulfonamide] | 0.29
COc1cccc(OC)c1-n1c(NS(=O)(=O)[C@H](C)Cc2ncc(F)cn2)nnc1-c1nc(C(C)C)cs1 [Example 156.0] | 0.32
COc1cccc(OC)c1-n1c(NS(=O)(=O)CCc2ccc(Cl)cc2)nnc1-c1ncc(Cl)s1 [Example 144.0, 2-(4-chlorophenyl)-N-(5-(5-chlorothiazol-2-yl)-4-(2,6-dimethoxyphenyl)-4H-1,2,4-triazol-3-yl)ethanesulfonamide] | 330
COc1ccccc1-n1c(NS(=O)(=O)CCC(F)(F)F)nnc1-c1cccs1 [Example 386.0, 3,3,3-Trifluoro-N-(4-(2-methoxyphenyl)-5-(2-thiophenyl)-4H-1,2,4-triazol-3-yl)-1-propanesulfonamide] | > 12500
COc1ccccc1-n1c(NS(=O)(=O)Cc2ccc(Cl)cc2)nnc1-c1ccc(F)s1 [Example 235.0, 1-(4-chlorophenyl)-N-(5-(5-fluoro-2-thiophenyl)-4-(2-methoxyphenyl)-4H-1,2,4-triazol-3-yl)methanesulfonamide] | > 12500
(2S)-N-(4-(2,6-dimethoxyphenyl)-5-(6-methoxy-2-pyrazinyl)-4H-1,2,4-triazol-3-yl)-1-(5-fluoro-2-pyrimidinyl)-2-propanesulfonamide and (2R)-N-(4-(2,6-dimethoxyphenyl)-5-(6-methoxy-2-pyrazinyl)-4H-1,2,4-triazol-3-yl)-1-(5-fluoro-2-pyrimidinyl)-2-propanesulfonamide [Example 177.0] | 4.5
COc1cccc(OC)c1-n1c(NS(=O)(=O)[C@@H](C)[C@@H](OC(C)C)c2cnc(C)cn2)nnc1-c1cc(C)on1 [Example 497.0, (1S,2S)-N-(4-(2,6-dimethoxyphenyl)-5-(5-methylisoxazol-3-yl)-4H-1,2,4-triazol-3-yl)-1-isopropoxy-1-(5-methylpyrazin-2-yl)propane-2-sulfonamide] | 15
COc1cccc(OC)c1-n1c(NS(=O)(=O)CCc2ncc(F)cn2)nnc1-c1nc(C)cs1 [Example 94.0, N-(4-(2,6-dimethoxyphenyl)-5-(4-methylthiazol-2-yl)-4H-1,2,4-triazol-3-yl)-2-(5-fluoropyrimidin-2-yl)ethanesulfonamide] | 2.7
COc1cccc(OC)c1-n1c(NS(=O)(=O)[C@@H](C)[C@H](C)c2ncc(Cl)cn2)nnc1-c1ccn(C(F)F)n1 [Example 222.0, (2S,3R)-3-(5-chloro-2-pyrimidinyl)-N-(5-(1-(difluoromethyl)-1H-pyrazol-3-yl)-4-(2,6-dimethoxyphenyl)-4H-1,2,4-triazol-3-yl)-2-butanesulfonamide] | 0.11
COc1cccc(OC)c1-n1c(NS(=O)(=O)[C@@H](C)[C@H](C)c2ncc(C)cn2)nnc1-c1cnn(C)c1 [Example 215.0, (2S,3R)-N-(4-(2,6-dimethoxyphenyl)-5-(1-methyl-1H-pyrazol-4-yl)-4H-1,2,4-triazol-3-yl)-3-(5-methyl-2-pyrimidinyl)-2-butanesulfonamide] | 0.42
COc1ncnc(OC)c1-n1c(NS(=O)(=O)[C@@H](C)[C@H](C)c2ncc(C)cn2)nnc1-c1nc(C)cs1 [Example 3.0, (2S,3R)-N-(4-(4,6-dimethoxypyrimidin-5-yl)-5-(4-methylthiazol-2-yl)-4H-1,2,4-triazol-3-yl)-3-(5-methylpyrimidin-2-yl)butane-2-sulfonamide] | 2.6
COc1ncnc(OC)c1-n1c(NS(=O)(=O)[C@@H](C)[C@H](C)c2ncc(Cl)cn2)nnc1-c1ccn(C)n1 [Example 294.0, (2S,3R)-3-(5-chloro-2-pyrimidinyl)-N-(4-(4,6-dimethoxy-5-pyrimidinyl)-5-(1-methyl-1H-pyrazol-3-yl)-4H-1,2,4-triazol-3-yl)-2-butanesulfonamide] | 0.49
CCn1ccc(-c2nnc(NS(=O)(=O)[C@@H](C)[C@H](C)c3ncc(C)cn3)n2-c2c(OC)cccc2OC)n1 [Example 389.0, (2S,3R)-N-(4-(2,6-Dimethoxyphenyl)-5-(1-ethyl-1H-pyrazol-3-yl)-4H-1,2,4-triazol-3-yl)-3-(5-methylpyrimidin-2-yl)butane-2-sulfonamide] | 0.34
(R)-N-(4-(2,6-dimethoxyphenyl)-5-(pyrimidin-4-yl)-4H-1,2,4-triazol-3-yl)-1-(5-fluoropyrimidin-2-yl)propane-2-sulfonamide and (R)-N-(4-(2,6-dimethoxyphenyl)-5-(pyrimidin-4-yl)-4H-1,2,4-triazol-3-yl)-1-(5-fluoropyrimidin-2-yl)propane-2-sulfonamide [Example 31.0] | 190
Cc1cnc([C@H](OC(C)C)[C@H](C)S(=O)(=O)Nc2nnc(-c3cnn4c3CCC4)n2-c2c(F)cccc2F)cn1 [Example 484.0, (1S,2S)-N-(4-(2,6-difluorophenyl)-5-(5,6-dihydro-4H-pyrrolo[1,2-b]pyrazol-3-yl)-4H-1,2,4-triazol-3-yl)-1-isopropoxy-1-(5-methylpyrazin-2-yl)propane-2-sulfonamide] | 9.2
COc1cccc(OC)c1-n1c(NS(=O)(=O)[C@@H](C)[C@H](OC)c2ncc(C)cn2)nnc1-c1ncc(C)s1 [Example 331.0, (1R,2S)-N-(4-(2,6-Dimethoxyphenyl)-5-(5-methyl-1,3-thiazol-2-yl)-4H-1,2,4-triazol-3-yl)-1-methoxy-1-(5-methyl-2-pyrimidinyl)-2-propanesulfonamide] | 0.98
COc1cncc(-c2nnc(NS(=O)(=O)[C@@H](C)Cc3ncc(F)cn3)n2-c2c(OC)cccc2OC)n1 (single isomer, unassigned) [Example 188.0, (2S)-N-(4-(2,6-dimethoxyphenyl)-5-(6-methoxy-2-pyrazinyl)-4H-1,2,4-triazol-3-yl)-1-(5-fluoro-2-pyrimidinyl)-2-propanesulfonamide or (2R)-N-(4-(2,6-dimethoxyphenyl)-5-(6-methoxy-2-pyrazinyl)-4H-1,2,4-triazol-3-yl)-1-(5-fluoro-2-pyrimidinyl)-2-propanesulfonamide] | 15
COc1cncc(-c2nnc(NS(=O)(=O)[C@@H](C)[C@H](C)c3ncc(C)cn3)n2-c2c(OC)cccc2OC)n1 [Example 202.0, (2S,3R)-N-(4-(2,6-dimethoxyphenyl)-5-(6-methoxy-2-pyrazinyl)-4H-1,2,4-triazol-3-yl)-3-(5-methyl-2-pyrimidinyl)-2-butanesulfonamide] | 2.9
COc1cccc(OC)c1-n1c(NS(=O)(=O)CCc2ccc(Cl)cc2)nnc1-c1cocn1 [Example 139.0, 2-(4-chlorophenyl)-N-(4-(2,6-dimethoxyphenyl)-5-(oxazol-4-yl)-4H-1,2,4-triazol-3-yl)ethanesulfonamide] | 118
COc1cccc(OC)c1-n1c(NS(=O)(=O)[C@H](C)Cc2ncc(F)cn2)nnc1-c1nc(C(C)C)cs1 (single isomer, unassigned) [Example 157.0, (R)-N-(4-(2,6-dimethoxyphenyl)-5-(4-isopropylthiazol-2-yl)-4H-1,2,4-triazol-3-yl)-1-(5-fluoropyrimidin-2-yl)propane-2-sulfonamide or (S)-N-(4-(2,6-dimethoxyphenyl)-5-(4-isopropylthiazol-2-yl)-4H-1,2,4-triazol-3-yl)-1-(5-fluoropyrimidin-2-yl)propane-2-sulfonamide] | 58
COc1ccccc1-n1c(NS(=O)(=O)[C@@H](C)[C@H](C)c2ncc(F)cn2)nnc1-c1ccn(C)n1 [Example 269.0, (2S,3R)-3-(5-fluoro-2-pyrimidinyl)-N-(4-(2-methoxyphenyl)-5-(1-methyl-1H-pyrazol-3-yl)-4H-1,2,4-triazol-3-yl)-2-butanesulfonamide] | 8.7
